Assay results reported in article PMC11791975, “Highly Sensitive In Vivo Imaging of Bacterial Infections with a Hydrophilicity‐Switching, Self‐Immobilizing, Near‐Infrared Fluorogenic β‐Lactamase Probe Enriched within Bacteria” (Advanced Science, 2024).

What was measured:
[1] = molecular target: T1, New Delhi metallo β lactamase-1 (NDM-1 bla) (Klebsiella pneumoniae, UniProt C7C422); experiment: biochemical; design: beta-lactamase inhibition, fluorogenic substrate CDC-1 hydrolysis, initial velocity, 10 min preincubation
T1 construct: gene blaNDM-1
T1 sequence (C7C422 29-270 limits assumed): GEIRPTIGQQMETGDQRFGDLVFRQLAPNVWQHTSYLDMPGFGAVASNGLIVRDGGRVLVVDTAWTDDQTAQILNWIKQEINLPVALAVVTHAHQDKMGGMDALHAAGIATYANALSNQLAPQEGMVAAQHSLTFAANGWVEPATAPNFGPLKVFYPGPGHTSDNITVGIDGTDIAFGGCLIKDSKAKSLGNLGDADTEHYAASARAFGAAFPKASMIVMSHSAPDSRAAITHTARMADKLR
Experimental: (§1) 36 and imaged with an Odyssey SA near-infrared two-color laser imaging system, followed by staining with Coomassie brilliant blue. Assay for IC50 of β-Lactamase Inhibitor The IC50 was determined following the reported protocol with minor modifications. […] The initial velocity (V0) was calculated using the linear portions of the curves. Each experiment was triplicated. The IC50 was obtained by fitting a dose-response curve using Graph Pad Prism 7 software.

[2] = molecular target: T1, New Delhi metallo β lactamase-1 (NDM-1 bla); experiment: in vitro β-lactamase inhibition assay (IC50, Figure S29; also cites ref […]); format: biochemical
[3] = molecular target: TEM-1 β-lactamase (TEM-1 bla) (Escherichia coli, UniProt P62593); experiment: biochemical; design: beta-lactamase inhibition, fluorogenic substrate CDC-1 hydrolysis, initial velocity, 10 min preincubation; conditions: read-out: IC50 (μM) ebselen TEM-1
TEM-1 β-lactamase (TEM-1 bla), sequence (P62593 24-286 limits assumed): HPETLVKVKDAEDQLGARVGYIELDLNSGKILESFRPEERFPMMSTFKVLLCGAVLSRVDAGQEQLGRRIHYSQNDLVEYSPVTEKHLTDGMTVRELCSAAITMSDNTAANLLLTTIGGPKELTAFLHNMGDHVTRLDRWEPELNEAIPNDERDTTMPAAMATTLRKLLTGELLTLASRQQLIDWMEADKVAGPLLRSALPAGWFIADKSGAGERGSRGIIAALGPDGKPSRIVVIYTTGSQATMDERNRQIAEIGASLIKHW
Experimental: as §1

SMILES | IC50 [1] [µM] | IC50 [2] [µM] | IC50 [3] [µM]
NC(=O)[C@@H]1CC[C@@H]2CN1C(=O)N2OS(=O)(=O)O [avibactam] | > 25 | – | –
O=c1c2ccccc2[se]n1-c1ccccc1 [ebselen] | – | 0.508 | > 25
